Laboratory results taken from patent US10780127B2, “Method for producing fermented milk having high angiotensin converting enzyme inhibitory activity and method for producing physiologically active peptide” (NATIONAL UNIVERSITY CORPORATION TOTTORI UNIVERSITY, priority 2016, dated 2020).
Where two headings read alike, the source gives them in different places. Peptide text beside a SMILES is read from it.

How the values were obtained:
ACE [1] = biological target: T1, ACE (Homo sapiens, UniProt P12821); details: reported value; read-out: IC50 value of YP for ACE; cited from earlier work
ACE [2] = biological target: T1, ACE; assay: Reported IC50 value of YP for ACE; assay type: biochemical; details: corresponds to 720 μM; read-out: IC50 value of YP for ACE, corresponding mass concentration (converted)

T1 sequence (P12821 30-1306, species assumed): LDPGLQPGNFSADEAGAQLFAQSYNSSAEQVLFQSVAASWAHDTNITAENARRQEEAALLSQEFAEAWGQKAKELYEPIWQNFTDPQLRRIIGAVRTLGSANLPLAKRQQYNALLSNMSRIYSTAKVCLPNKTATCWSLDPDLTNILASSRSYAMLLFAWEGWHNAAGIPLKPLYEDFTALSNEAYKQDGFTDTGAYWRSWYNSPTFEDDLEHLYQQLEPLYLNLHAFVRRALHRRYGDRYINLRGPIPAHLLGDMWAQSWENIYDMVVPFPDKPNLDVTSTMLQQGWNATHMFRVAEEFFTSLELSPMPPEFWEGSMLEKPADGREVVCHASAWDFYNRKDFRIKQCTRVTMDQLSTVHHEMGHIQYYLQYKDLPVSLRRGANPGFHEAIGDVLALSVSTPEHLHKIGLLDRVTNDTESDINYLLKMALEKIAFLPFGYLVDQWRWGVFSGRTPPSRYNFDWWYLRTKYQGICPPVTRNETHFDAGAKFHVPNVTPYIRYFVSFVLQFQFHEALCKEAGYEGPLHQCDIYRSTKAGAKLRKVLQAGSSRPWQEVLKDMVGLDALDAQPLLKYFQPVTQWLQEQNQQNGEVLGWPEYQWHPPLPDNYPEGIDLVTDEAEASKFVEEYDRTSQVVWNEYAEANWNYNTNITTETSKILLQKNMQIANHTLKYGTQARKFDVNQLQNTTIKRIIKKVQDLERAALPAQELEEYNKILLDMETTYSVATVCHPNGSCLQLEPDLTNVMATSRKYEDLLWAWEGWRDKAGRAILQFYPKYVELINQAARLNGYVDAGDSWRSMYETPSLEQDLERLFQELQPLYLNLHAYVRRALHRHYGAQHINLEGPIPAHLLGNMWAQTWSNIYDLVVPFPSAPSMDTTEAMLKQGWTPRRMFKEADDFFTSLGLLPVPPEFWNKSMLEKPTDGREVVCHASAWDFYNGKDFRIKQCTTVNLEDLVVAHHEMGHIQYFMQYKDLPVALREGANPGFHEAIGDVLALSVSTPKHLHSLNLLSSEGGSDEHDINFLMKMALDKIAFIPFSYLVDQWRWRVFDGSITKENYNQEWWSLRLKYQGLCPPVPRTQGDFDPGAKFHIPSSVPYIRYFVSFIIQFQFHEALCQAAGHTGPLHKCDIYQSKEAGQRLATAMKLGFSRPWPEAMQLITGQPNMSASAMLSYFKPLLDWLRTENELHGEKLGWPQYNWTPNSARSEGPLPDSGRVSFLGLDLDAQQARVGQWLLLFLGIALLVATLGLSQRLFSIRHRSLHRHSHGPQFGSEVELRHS

For N[C@@H](Cc1ccc(O)cc1)C(=O)N1CCC[C@H]1C(=O)O [YP, Tyr-Pro] (H-Tyr-Pro-OH), the IC50 (ACE [1]) is listed as 720 µM and the IC50 (ACE [2]) is listed as 719 µM.
